Results from ChEMBL document CHEMBL1201862, “PubChem BioAssay data set” (2004).
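Five concentrations, 48 hours, 96-well plates. GI50 is the concentration that inhibits growth by half.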 The source made the active and inactive calls. Cut-off read from the data, not from the text of the source: active = GI50 up to about 1.1 µM and inactive = higher.

Experiments:
Assay in all cases: NCI tumour cell line growth inhibition, 48 h
A549 = tested on: A549
ACHN = tested on: ACHN
BT-549 = tested on: BT-549
COLO 205 = tested on: COLO 205
DU-145 = tested on: DU-145
Hs-578T = tested on: Hs-578T
KM12 = tested on: KM12
M14 = tested on: M14
MDA-N = tested on: MDA-N
NCI-H23 = tested on: NCI-H23
OVCAR-5 = tested on: OVCAR-5
OVCAR-8 = tested on: OVCAR-8
SW-620 = tested on: SW-620
786-0 = tested on: 786-0
CCRF-CEM = tested on: CCRF-CEM
MDA-MB-231 = tested on: MDA-MB-231
SK-MEL-2 = tested on: SK-MEL-2
SR = tested on: SR

SMILES | GI50 (A549) | GI50 (ACHN) | GI50 (BT-549) | GI50 (COLO 205) | GI50 (DU-145) | GI50 (Hs-578T) | GI50 (KM12) | GI50 (M14) | GI50 (MDA-N) | GI50 (NCI-H23) | GI50 (OVCAR-5) | GI50 (OVCAR-8) | GI50 (SW-620) | GI50 (786-0) | GI50 (CCRF-CEM) | GI50 (MDA-MB-231) | GI50 (SK-MEL-2) | GI50 (SR)
CCn1nc(C)c2c1C(=O)NCC(=O)N2 | > 100 µM (inactive) | > 100 µM (inactive) | > 100 µM (inactive) | > 100 µM (inactive) | > 100 µM (inactive) | > 100 µM (inactive) | > 100 µM (inactive) | > 100 µM (inactive) | > 100 µM (inactive) | > 100 µM (inactive) | > 100 µM (inactive) | > 100 µM (inactive) | > 100 µM (inactive) |  |  |  |  | 
CCCCC1=NNC(=O)C1 | > 100 µM (inactive) | > 100 µM (inactive) | > 100 µM (inactive) | > 100 µM (inactive) |  | 4.9 µM (inactive) | > 100 µM (inactive) | > 100 µM (inactive) | > 100 µM (inactive) | > 100 µM (inactive) | > 100 µM (inactive) | > 100 µM (inactive) | > 100 µM (inactive) | > 100 µM (inactive) | > 100 µM (inactive) | > 100 µM (inactive) | > 100 µM (inactive) | > 100 µM (inactive)
CC1C=CN(N(C)C)C2=C1C(=O)c1cnccc1C2=O (stereo not drawn) | 0.331 µM (active) | 0.251 µM (active) | 0.355 µM (active) | 1.12 µM (inactive) | 0.372 µM (active) | 0.693 µM (active) | 1.24 µM (inactive) | 0.424 µM (active) | 0.133 µM (active) | 0.261 µM (active) | 1.37 µM (inactive) | 0.883 µM (active) | 0.395 µM (active) | 0.195 µM (active) | 2.09 µM (inactive) |  | 1.63 µM (inactive) | 0.0156 µM (active)
Cc1ccc(-c2n[nH]c(=O)n2N2C(=O)c3ccccc3C2=O)cc1 | > 100 µM (inactive) | > 100 µM (inactive) | > 100 µM (inactive) |  | > 100 µM (inactive) | > 100 µM (inactive) | > 100 µM (inactive) | > 100 µM (inactive) | > 100 µM (inactive) | > 100 µM (inactive) | > 100 µM (inactive) | > 100 µM (inactive) | > 100 µM (inactive) | > 100 µM (inactive) |  | > 100 µM (inactive) | > 100 µM (inactive) | > 100 µM (inactive)
O=C(O)CC(O)(C(=O)O)C(O)C(=O)O (stereo not drawn) | > 1000 µM (inactive) | > 1000 µM (inactive) | > 1000 µM (inactive) | > 1000 µM (inactive) | > 1000 µM (inactive) | 119 µM (inactive) | > 1000 µM (inactive) | > 1000 µM (inactive) | 617 µM (inactive) | > 1000 µM (inactive) | > 1000 µM (inactive) | > 1000 µM (inactive) | > 1000 µM (inactive) | > 1000 µM (inactive) | > 1000 µM (inactive) | > 1000 µM (inactive) | > 1000 µM (inactive) | 
CCOC(=O)c1sc2nc(SC)nc3c2c1NCN3C | 16.9 µM (inactive) | 18.7 µM (inactive) | 35.7 µM (inactive) | > 100 µM (inactive) | 70.1 µM (inactive) | 20.1 µM (inactive) | > 100 µM (inactive) | 76.9 µM (inactive) | > 100 µM (inactive) | 22 µM (inactive) | 36.1 µM (inactive) | 10.7 µM (inactive) |  | 15.2 µM (inactive) | > 100 µM (inactive) | 28.1 µM (inactive) | 86.1 µM (inactive) | 
COC(=O)CNCC1OC2OC(C)(C)OC2C1N=[N+]=[N-] (stereo not drawn) | > 100 µM (inactive) | > 100 µM (inactive) | > 100 µM (inactive) | > 10 µM (inactive) | > 100 µM (inactive) | > 100 µM (inactive) | > 100 µM (inactive) |  | > 100 µM (inactive) |  | > 100 µM (inactive) | > 100 µM (inactive) | > 100 µM (inactive) | > 100 µM (inactive) | > 100 µM (inactive) |  | > 100 µM (inactive) | > 100 µM (inactive)
CC[C@@H]1CC[C@@H]2[C@H](CC[C@]3(C)[C@@H](OC(C)=O)CC[C@@H]23)[C@H]1COC(C)=O | 22.1 µM (inactive) | 53.8 µM (inactive) | 32.1 µM (inactive) | 19.1 µM (inactive) | > 100 µM (inactive) | 25.1 µM (inactive) | 24.3 µM (inactive) | 25.4 µM (inactive) | 24.9 µM (inactive) | 27.2 µM (inactive) | 20.1 µM (inactive) | 23 µM (inactive) | 31.8 µM (inactive) | 45.1 µM (inactive) | 20 µM (inactive) | 20 µM (inactive) | 16.4 µM (inactive) | 
CCOC(=O)C(O)(NC(C)=O)C(F)(F)F (stereo not drawn) | > 100 µM (inactive) | > 100 µM (inactive) | > 100 µM (inactive) | > 100 µM (inactive) | > 100 µM (inactive) | > 100 µM (inactive) | > 100 µM (inactive) | > 100 µM (inactive) | > 100 µM (inactive) | > 100 µM (inactive) | > 100 µM (inactive) | > 100 µM (inactive) | > 100 µM (inactive) |  | > 100 µM (inactive) |  | > 100 µM (inactive) | 7.24 µM (inactive)
N=C1NC(c2ccc(Cl)cc2)=CC(c2cccc(Cl)c2)S1 (stereo not drawn) | 24.7 µM (inactive) | 24.4 µM (inactive) | 63.5 µM (inactive) | 16.4 µM (inactive) | 66.1 µM (inactive) | 26.5 µM (inactive) | 27 µM (inactive) | 48.4 µM (inactive) | 21.2 µM (inactive) | 34.8 µM (inactive) | 66.8 µM (inactive) | 38.6 µM (inactive) | 34.5 µM (inactive) | 36.1 µM (inactive) | 22.4 µM (inactive) |  | 20.6 µM (inactive) | 28.7 µM (inactive)
CC[C@@]12CCC(=S)N(CCSc3ccccc3)[C@@H]1c1c(n(S(=O)(=O)c3ccc(OC)cc3)c3ccccc13)CC2 | > 100 µM (inactive) |  | 48.1 µM (inactive) | > 100 µM (inactive) | > 100 µM (inactive) | > 100 µM (inactive) | > 100 µM (inactive) | > 100 µM (inactive) |  | > 100 µM (inactive) | > 100 µM (inactive) | > 100 µM (inactive) | > 100 µM (inactive) | 63.1 µM (inactive) | > 100 µM (inactive) | > 100 µM (inactive) | > 100 µM (inactive) | > 100 µM (inactive)
COC(=O)C1=C(C(=O)OC)SC2(S1)C1=C(CCC1)SC(C(=O)OC)=C2C(=O)OC | 16.5 µM (inactive) | 12.3 µM (inactive) | 16 µM (inactive) | 13.8 µM (inactive) | 4.4 µM (inactive) | 18.5 µM (inactive) | 15.1 µM (inactive) | 18.3 µM (inactive) | 14.5 µM (inactive) | 18.6 µM (inactive) | 19.4 µM (inactive) | 10.2 µM (inactive) | 2.43 µM (inactive) |  | 2.17 µM (inactive) | 18.8 µM (inactive) | 18.8 µM (inactive) | 
